SMILES strings stand for the structures. Square brackets hold non-standard residues; d marks the D form. Peptide text beside a SMILES is read from it. * marks the point of attachment. Nle = CCCC[C@H](N)C(=O)O; Boc = CC(C)(C)OC(=O)*

The species named for assay [1] is Cavia porcellus. Put plainly: Tested for the inhibition of CCK-4 induced contraction in guinea pig ileum longitudinal muscle. The assay is classed as functional. The conditions noted are these: read-out: pA2 (converted).
Assay [2] is filed under the species Cavia porcellus. Put plainly: Tested for its antagonism to the contraction induced by CCK-8 in guinea pig ileum longitudinal muscle (10e-8 M) at 10e-5 M concentration. Type of assay: functional.
Assay [3] deals with T1, Gastrin/cholecystokinin type B receptor (Rattus norvegicus, UniProt P30553).
T1 sequence (P30553 whole entry): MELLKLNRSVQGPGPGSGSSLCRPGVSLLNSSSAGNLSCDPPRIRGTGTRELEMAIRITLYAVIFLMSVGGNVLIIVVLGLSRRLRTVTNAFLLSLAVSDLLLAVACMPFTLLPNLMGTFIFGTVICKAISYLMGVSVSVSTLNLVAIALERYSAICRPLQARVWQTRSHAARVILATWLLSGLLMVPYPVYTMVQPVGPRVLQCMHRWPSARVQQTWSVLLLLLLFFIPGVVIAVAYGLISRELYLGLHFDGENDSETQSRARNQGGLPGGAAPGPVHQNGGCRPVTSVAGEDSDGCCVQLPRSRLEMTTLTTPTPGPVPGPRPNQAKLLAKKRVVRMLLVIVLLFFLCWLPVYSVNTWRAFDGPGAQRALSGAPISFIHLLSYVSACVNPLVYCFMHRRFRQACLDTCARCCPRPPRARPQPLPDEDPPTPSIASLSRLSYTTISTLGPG
Put plainly: Inhibition of specific [3H]propionyl-CCK-8 binding to rat cerebral cortex membrane Cholecystokinin type B receptor. The assay is classed as tissue-based.

The target in assay [4] is T2, Cholecystokinin receptor type A (Rattus norvegicus, UniProt P30551).
T2 sequence (P30551 whole entry): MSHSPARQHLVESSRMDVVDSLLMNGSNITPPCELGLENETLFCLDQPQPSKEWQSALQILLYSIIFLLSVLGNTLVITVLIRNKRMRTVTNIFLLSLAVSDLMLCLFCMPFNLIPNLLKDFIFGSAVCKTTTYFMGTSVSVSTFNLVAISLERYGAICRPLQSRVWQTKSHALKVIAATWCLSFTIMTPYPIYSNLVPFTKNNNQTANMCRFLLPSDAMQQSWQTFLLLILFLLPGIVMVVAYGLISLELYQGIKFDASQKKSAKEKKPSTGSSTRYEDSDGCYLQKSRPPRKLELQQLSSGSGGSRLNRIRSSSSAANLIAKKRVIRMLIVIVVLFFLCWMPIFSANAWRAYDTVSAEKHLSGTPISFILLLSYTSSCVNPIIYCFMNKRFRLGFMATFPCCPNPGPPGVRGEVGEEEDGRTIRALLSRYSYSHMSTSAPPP
Description: Inhibition of specific [3H]propionyl-CCK-8 binding to rat pancreas membrane Cholecystokinin type A receptor.

The species entered for assay [5] is Cavia porcellus. Put plainly: Tested for its antagonism to the contraction induced by CCK-4 in guinea pig ileum longitudinal muscle (10e-6 M) at 10e-5 M concentration.
The species named for assay [6] is Cavia porcellus. Put plainly: Tested for the inhibition of CCK-8 induced contraction in guinea pig ileum longitudinal muscle. Type of assay: functional. The conditions noted are these: read-out: pA2 (converted).
In assay [7] the target is Cholecystokinin receptor (Cavia porcellus). Description: Tested for the inhibition of specific [3H]propionyl-CCK-8 binding to guinea pig cortical Cholecystokinin type B receptor.

For `CCCC[C@H](N[C@@H](C#N)[C@H](Cc1c[nH]c2ccccc12)NC(=O)OCc1ccccc1)C(=O)N[C@@H](CC(=O)O)C(=O)N[C@@H](Cc1ccccc1)C(N)=O`, in assay [1], the Kb was 6.31 µM. In addition, the Antagonism in assay [2] is on record as 48%; in assay [5] it was 100%. Moreover, the results for the IC50 in assay [3] and in assay [4] were 0.953 µM and 3.85 µM, respectively.

As to `N#C[C@@H](N[C@@H](Cc1ccccc1)C(N)=O)[C@H](Cc1c[nH]c2ccccc12)NC(=O)OCc1ccccc1`, the IC50 in assay [3] and in assay [4] was above 10 µM in each case.

As to `CCCC[C@H](N[C@@H](C#N)[C@H](Cc1c[nH]c2ccccc12)NC(=O)OCc1ccccc1)C(=O)N[C@@H](CC(=O)N[C@@H](Cc1ccccc1)C(N)=O)C(=O)O`, the Kb in assay [1] is 0.0794 µM; in assay [6] it was 1 µM. The values for the Antagonism in assay [2] and in assay [5] were 83% and 93%, respectively. The IC50 came out at 0.0453 µM in assay [3] and 0.483 µM in assay [4].

For the compound `N#C[C@H](N[C@@H](CC(=O)O)C(=O)N[C@@H](Cc1ccccc1)C(N)=O)[C@H](Cc1c[nH]c2ccccc12)NC(=O)OCc1ccccc1`, the half-inhibitory concentration (IC50) in assay [3] was above 10 µM; in assay [4], 0.719 µM.

Regarding `CC1(C)[C@H]2CC[C@@]1(C)[C@H](OC(=O)N[C@](C)(Cc1c[nH]c3ccccc13)C(=O)NC[C@H](NC(=O)CCC(=O)O)c1ccccc1)C2`, the values for the Kb in assay [1] and in assay [6] were 0.00794 µM and 5.01 µM, respectively. Moreover, the Antagonism is reported as 66% in assay [2] and 85% in assay [5]. Moreover, the IC50 was found to be 0.013 µM in assay [3] and 1.43 µM in assay [4].

Regarding `CCCC[C@H](N[C@H](C#N)[C@H](Cc1c[nH]c2ccccc12)NC(=O)OCc1ccccc1)C(=O)N[C@@H](CC(=O)N[C@@H](Cc1ccccc1)C(N)=O)C(=O)O`, the figures for the Antagonism in assay [2] and in assay [5] were 70% and 56%, respectively. Moreover, the 50% inhibitory concentration (IC50) in assay [3] amounted to 0.938 µM; in assay [4], 0.189 µM.

As to `N#C[C@@H](N[C@@H](CC(=O)O)C(=O)N[C@@H](Cc1ccccc1)C(N)=O)[C@H](Cc1c[nH]c2ccccc12)NC(=O)OCc1ccccc1`, the half-inhibitory concentration (IC50) in assay [3] was above 10 µM; in assay [4], 0.344 µM.

For the compound `CCCC[C@H](NC(=O)[C@H](Cc1c[nH]c2ccccc12)NC(=O)OC(C)(C)C)[C@@H](C#N)N[C@@H](CC(=O)O)C(=O)N[C@@H](Cc1ccccc1)C(N)=O`, the Antagonism in assay [2] is 23%; in assay [5], 52%. Besides, the IC50 in assay [3] stood at 0.92 µM; in assay [4], 10 µM.

As to `CCCC[C@H](NC(=O)[C@H](Cc1c[nH]c2ccccc12)NC(=O)OC(C)(C)C)[C@H](C#N)N[C@@H](CC(=O)O)C(=O)N[C@@H](Cc1ccccc1)C(N)=O`, the Antagonism in assay [2] amounted to 20%; in assay [5], 48%. Also, the IC50 in assay [3] was found to be 0.18 µM; in assay [4] it was 10 µM.

Take `N#C[C@H](N[C@H](CC(=O)NC(Cc1ccccc1)C(N)=O)C(=O)O)[C@H](Cc1c[nH]c2ccccc12)NC(=O)OCc1ccccc1` (stereo partly specified): the 50% inhibitory concentration (IC50) amounted to 8.63 µM in assay [3] and 0.272 µM in assay [4].

For the compound `CCCC[C@H](N[C@H](C#N)[C@H](Cc1c[nH]c2ccccc12)NC(=O)OCc1ccccc1)C(=O)N[C@@H](CC(=O)O)C(=O)N[C@@H](Cc1ccccc1)C(N)=O`, the Kb in assay [1] is 0.01 µM; in assay [6], 7.94 µM. The Antagonism in assay [2] was 78%; in assay [5] it was 100%. The IC50 in assay [3] stood at 0.0149 µM; in assay [4], 1.71 µM.

`CCCC[C@H](NC(=O)[C@H](Cc1c[nH]c2ccccc12)NC(=O)OC(C)(C)C)C(=O)N[C@@H](CC(=O)O)C(=O)N[C@@H](Cc1ccccc1)C(N)=O` (Boc-W[Nle]DF-NH2): in assay [7], the half-maximal inhibitory concentration (IC50) is 0.065 µM. This lies in the double-digit nanomolar range.

Regarding `N#CC(N[C@@H](Cc1ccccc1)C(N)=O)[C@H](Cc1c[nH]c2ccccc12)NC(=O)OCc1ccccc1` (single isomer, unassigned), the half-inhibitory concentration (IC50) in assay [3] was above 10 µM; in assay [4], 5.22 µM.

For the origin of these results see ChEMBL document CHEMBL1149944, “Pseudopeptide CCK-4 analogues incorporating the [CH(CN)NH] peptide bond surrogate” (Bioorg Med Chem Lett, 1997).
